Assay results reported in US20040067998A1, “Antifungal and/or antiparasitic pharmaceutical composition and novel indole derivatives as active principle of such a composition” (priority 2003, published 2004).
In brackets after ≈: the same amount, converted by molar mass. Several values for one entry are separate records, joined by “and”; a condition that tells them apart may be missing. Equal values may be shown once. Entries after “also recorded” stand apart in the source; their conditions may differ. Read-outs that look alike come from different tables or passages of the source.

Experiments:
[1] = system: Aspergillus fumigatus (strain n°AF 980003); experiment: Antifungal activity on a clinical strain of Aspergillus fumigatus (Alamar Blue microplate test); assay type: cell-based; details: strain AF980003; for MIC: read-out: CMI or CI80 Aspergillus fumigatus (AF980003)
[2] = system: Candida albicans (strain n° CA980001); experiment: Antifungal activity on a clinical strain of Candida albicans (MTT colorimetric microplate test); assay type: cell-based; details: for MIC / CMI or CI80 Candida albicans (CA980001): strain CA980001; for MIC: read-out: CMI or CI80 Candida albicans (CA980001); for activity of inhibition of Candida albicans (in words): summary of Tables 27 to 40
[3] = system: promastigote stage of Leishmania mexicana; experiment: Antiparasitic activity on the promastigote form of Leishmania (MTT); assay type: cell-based; details: for IC50: read-out: CI50 Leishmania mexicana Promastigotes
[4] = system: Candida parapsilosis (2 strains); experiment: Antifungal activity in vitro on clinical strains of Candida: parapsilosis (2 strains); assay type: cell-based; details: for activity against Candida parapsilosis (in words): clinical strains
[5] = system: Candida albicans (4 strains); experiment: Antifungal activity in vitro on clinical strains of Candida: albicans (4 strains); assay type: cell-based; details: for activity against strains of Candida albicans (in words): clinical strains
[6] = system: Candida krusei (4 strains); experiment: Antifungal activity in vitro on clinical strains of Candida: krusei (4 strains); assay type: cell-based; details: for activity against Candida krusei (in words): clinical strains, b748: one strain
[7] = system: Candida lusitaniae (1 strain); experiment: Antifungal activity in vitro on clinical strains of Candida: lusitaniae (1 strain); assay type: cell-based; details: for activity against Candida lusitaniae (in words): clinical strain; for CI80 on clinical strains of Candida: strain CL980001 (Candida lusitaniae)
[8] = system: Candida albicans (CA98001); experiment: Antifungal activity in vivo on a model of disseminated candidiasis; design: species or system female Swiss mice
[9] = strain CP980001 (Candida parapsilosis)
[10] = strain CP980002 (Candida parapsilosis)
[11] = strain CA980001 (Candida albicans)
[12] = strain CA980002 (Candida albicans)
[13] = strain CA980003 (Candida albicans)
[14] = strain CA980005 (Candida albicans)
[15] = strain CK980001 (Candida krusei)
[16] = strain CK980002 (Candida krusei)
[17] = strain CK980003 (Candida krusei)
[18] = strain CK980004 (Candida krusei)

For Clc1ccccc1Cn1cc(C2(Cn3ccnc3)CCCC2)c2ccccc21 [compound 62], the MIC [1] was >100 µM, the MIC [2] was >100 µM and the “CI50 Leishmania mexicana Promastigotes” value [3] was 28.38 µg/mL (≈ 72.8 µM). The IC50 [3] was 72.8 µM.
Cc1c(C(C)n2ccnc2)c2ccccc2n1Cc1ccc(F)cc1 (stereo not drawn) [compound 72] was tested, and the “CMI or CI80 Aspergillus fumigatus (AF980003)” value [1] was 69 ± 1 μM and 23 ± 1 μg/mL, the “CMI or CI80 Candida albicans (CA980001)” value [2] was 67 ± 3 μM and 22 ± 1 μg/mL and the “CI50 Leishmania mexicana Promastigotes” value [3] was 0.7 ± 0.3 µg/mL (≈ 2.1 µM). For the same molecule, the IC50 [3] was 2 ± 1 µM.
OC(Cn1ccnc1)(Cn1ccc2ccccc21)c1ccc(Br)cc1 (stereo not drawn) [compound 73] was tested, and the MIC [1] was >100 µM, the “activity against Candida parapsilosis (in words)” value [4] was “very active” and the “CI80 on clinical strains of Candida” value [4, 9] was 0.67 ± 0.0 µM. For the same molecule, the “CI80 on clinical strains of Candida” value [4, 10] was 4.65 ± 0.11 µM, the “activity against strains of Candida albicans (in words)” value (shortened to “activity against strains”) [5] was “active; also recorded: very active” and the “CI80 on clinical strains of Candida” value [5, 11] was 0.06 ± 0.002 µM. The “CI80 on clinical strains of Candida” value [5, 12] was 0.63 ± 0.016 µM, the “CI80 on clinical strains of Candida” value [5, 13] was 0.55 ± 0.0963 µM and the “CI80 on clinical strains of Candida” value [5, 14] was 0.53 ± 0.022 µM. For the same molecule, the “CMI or CI80 Candida albicans (CA980001)” value [2] was 0.02 µg/mL, the MIC [2] was 0.06 µM (≈ 0.0238 µg/mL) and the “activity of inhibition of Candida albicans (in words)” value (“activity of inhibition … (in words)” below) [2] was “most active”. The “activity against Candida krusei (in words)” value [6] was “active; also recorded: very active”, the “CI80 on clinical strains of Candida” value [6, 15] was 0.65 ± 0.01 µM and the “CI80 on clinical strains of Candida” value [6, 16] was 12.81 ± 2.22 µM. The “CI80 on clinical strains of Candida” value [6, 17] was 92.27 ± 3.90 µM, the “CI80 on clinical strains of Candida” value [6, 18] was >100 µM and the “CI50 Leishmania mexicana Promastigotes” value ([3]; promastigotes) was 2.7 ± 0.08 µg/mL (≈ 6.81 µM). The IC50 ([3]; promastigotes) was 6.65 ± 0.22 µM, the “activity against Candida lusitaniae (in words)” value [7] was “very active” and the “CI80 on clinical strains of Candida” value [7] was 0.63 ± 0.01 µM.
OC(Cn1ccnc1)(Cn1ccc2ccccc21)c1ccc(Cl)cc1 (stereo not drawn) [compound 74] was tested, and the “CMI or CI80 Aspergillus fumigatus (AF980003)” value [1] was 83 ± 4 μM and 29 ± 1 μg/mL, the “activity against Candida parapsilosis (in words)” value [4] was “very active” and the “CI80 on clinical strains of Candida” value [4, 9] was 0.69 ± 0.03 µM. For the same molecule, the “CI80 on clinical strains of Candida” value [4, 10] was 3.71 ± 1.246 µM, the “activity against strains” value [5] was “very active” and the “CI80 on clinical strains of Candida” value [5, 11] was 0.061 ± 0.004 µM. The “CI80 on clinical strains of Candida” value [5, 12] was 0.47 ± 0.017 µM, the “CI80 on clinical strains of Candida” value [5, 13] was 0.07 ± 0.0047 µM and the “CI80 on clinical strains of Candida” value [5, 14] was 0.3 ± 0.024 µM. For the same molecule, the “CMI or CI80 Candida albicans (CA980001)” value [2] was 0.02 µg/mL, the MIC [2] was 0.07 µM (≈ 0.0246 µg/mL) and the “activity of inhibition … (in words)” value [2] was “most active”. The “CI80 on clinical strains of Candida” value [6, 15] was 59.29 ± 1.33 µM, the “CI80 on clinical strains of Candida” value [6, 16] was 7.74 ± 0.13 µM and the “CI80 on clinical strains of Candida” value [6, 17] was >100 µM. For the same molecule, the “CI80 on clinical strains of Candida” value [6, 18] was >100 µM, the “CI50 Leishmania mexicana Promastigotes” value ([3]; promastigotes) was 5 ± 0.2 µg/mL (≈ 14.2 µM) and the IC50 ([3]; promastigotes) was 15.1 ± 0.6 µM. For the same molecule, the “activity against Candida lusitaniae (in words)” value [7] was “very active” and the “CI80 on clinical strains of Candida” value [7] was 0.63 ± 0.01 µM.
In the case of OC(Cn1ccnc1)(Cn1ccc2ccccc21)c1ccc(Cl)cc1Cl (stereo not drawn) [compound 75], the “CMI or CI80 Aspergillus fumigatus (AF980003)” value [1] is reported as 4 ± 0 μM and 1 ± 0 μg/mL, the “CI80 on clinical strains of Candida” value [4, 9] is reported as 1.0 ± 0.1 µM and the “CI80 on clinical strains of Candida” value [4, 10] is reported as 0.86 ± 0.04 µM. For the same molecule, the “activity against strains” value [5] was “active”, the “CI80 on clinical strains of Candida” value [5, 11] was <0.001 µM and the “CI80 on clinical strains of Candida” value [5, 12] was 0.65 ± 0.01 µM. For the same molecule, the “CI80 on clinical strains of Candida” value [5, 13] was 0.64 ± 0.01 µM, the “CI80 on clinical strains of Candida” value [5, 14] was 0.71 ± 0.01 µM and the MIC [2] was <0.001 µM. The “activity of inhibition … (in words)” value [2] was “most active”, the “activity against Candida krusei (in words)” value [6] was “active” and the “CI80 on clinical strains of Candida” value [6, 15] was 0.62 ± 0.002 µM. The “CI80 on clinical strains of Candida” value [6, 17] was >1 µM, the “CI80 on clinical strains of Candida” value [6, 18] was 4.2 ± 0.1 µM and the “CI50 Leishmania mexicana Promastigotes” value ([3]; promastigotes) was 1.47 µg/mL (≈ 3.81 µM). For the same molecule, the IC50 ([3]; promastigotes) was 4 µM, the “CI80 on clinical strains of Candida” value [7] was 0.3 ± 0.1 µM and the “activity on survival at the end of the experiment (D14) (in words)” value ([8]; Test N°1, 20 mg/kg/d for 5 d) was “not on survival at the end of the experiment”. The “activity on the survival at D4-D5 (in words)” value ([8]; Test N°1, 20 mg/kg/d for 5 d) was “slight activity”, the “survival improved compared to the control batch” value ([8]; Test N°1, day 8 (D8), daily dose of 20 mg/kg) was 25% and the “survival at D14” value ([8]; Test N°2, 2 × 30 mg/kg/d for 5 d intraperitoneally) was “Compound 75: no survival at end of experiment (D14)”. For the same molecule, the “effect of treatment on the survival of the animals (in words)” value ([8]; Test N°2, 2 × 30 mg/kg/d for 5 d intraperitoneally, monitored 14 days (78: from D9 to D14)) was “ineffective”.
In the case of OC(Cn1ccnc1)(Cn1ccc2ccccc21)c1ccc(F)cc1 (stereo not drawn) [compound 76], the “CMI or CI80 Aspergillus fumigatus (AF980003)” value [1] is reported as 88 ± 2 μM and 30 ± 0.7 μg/mL, the “CI80 on clinical strains of Candida” value [4, 9] is reported as 4.10 ± 0.35 µM and the “CI80 on clinical strains of Candida” value [4, 10] is reported as 6.32 ± 0.14 µM. For the same molecule, the “activity against strains” value [5] was “very active”, the “CI80 on clinical strains of Candida” value [5, 11] was 0.067 ± 0.005 µM and the “CI80 on clinical strains of Candida” value [5, 12] was 0.61 ± 0.022 µM. The “CI80 on clinical strains of Candida” value [5, 13] was 0.25 ± 0.11 µM, the “CI80 on clinical strains of Candida” value [5, 14] was 0.44 ± 0.044 µM and the “CMI or CI80 Candida albicans (CA980001)” value [2] was 0.03 µg/mL. The MIC [2] was 0.08 µM (≈ 0.0268 µg/mL), the “activity of inhibition … (in words)” value [2] was “most active” and the “CI80 on clinical strains of Candida” value [6, 15] was 65.38 ± 3.71 µM. For the same molecule, the “CI80 on clinical strains of Candida” value [6, 16] was 38.05 ± 7.24 µM, the “CI80 on clinical strains of Candida” value [6, 17] was 85.27 ± 0.324 µM and the “CI80 on clinical strains of Candida” value [6, 18] was >100 µM. The “CI50 Leishmania mexicana Promastigotes” value ([3]; promastigotes) was 3 ± 0.03 µg/mL (≈ 8.95 µM), the IC50 ([3]; promastigotes) was 9.2 ± 0.09 µM and the “activity against Candida lusitaniae (in words)” value [7] was “very active”. The “CI80 on clinical strains of Candida” value [7] was 0.69 ± 0.08 µM.
OC(Cn1ccnc1)(Cn1ccc2ccccc21)c1ccc(F)cc1F (stereo not drawn) [compound 77] was tested, and the “CMI or CI80 Aspergillus fumigatus (AF980003)” value [1] was 11 ± 7 μM and 4 ± 2 μg/mL, the “CMI or CI80 Candida albicans (CA980001)” value [2] was 0.00035 µg/mL and the MIC [2] was 0.0011 µM (≈ 0.000389 µg/mL). For the same molecule, the “activity of inhibition … (in words)” value [2] was “most active”, the “CI50 Leishmania mexicana Promastigotes” value ([3]; promastigotes) was 1.59 µg/mL (≈ 4.5 µM) and the IC50 ([3]; promastigotes) was 4.5 µM.
With Clc1ccc(C(Cn2ccc3ccccc32)n2ccnc2)cc1 (stereo not drawn) [compound 85] the “CMI or CI80 Aspergillus fumigatus (AF980003)” value [1] was 88 ± 5 μM and 28 ± 2 μg/mL, the MIC [2] was >100 µM and the IC50 [3] was > 100 µM.
